“Also recorded” adds a separate entry of the source.
Columns and labels:
[1] = target: T1, MARCH5 (Homo sapiens, UniProt Q9NX47); test: MARCH5 / γc-luciferase reporter system in co-transfected HEK293 cells (screen of FDA-approved drugs); assay type: cell-based; conditions: HEK293 cells co-transfected with MARCH5 and γc-luciferase fusion protein; increase = MARCH5 inhibition
T1 construct: expressed in transfected cells; host or cells: HEK293
T1 sequence (Q9NX47 1-278): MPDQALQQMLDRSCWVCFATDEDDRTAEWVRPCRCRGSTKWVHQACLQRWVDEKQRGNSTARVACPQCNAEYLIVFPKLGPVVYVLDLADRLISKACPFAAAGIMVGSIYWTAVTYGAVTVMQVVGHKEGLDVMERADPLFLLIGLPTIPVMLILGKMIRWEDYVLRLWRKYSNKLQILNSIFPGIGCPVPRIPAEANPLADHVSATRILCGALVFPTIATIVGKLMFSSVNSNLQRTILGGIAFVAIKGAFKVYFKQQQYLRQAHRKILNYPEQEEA
Excerpt: Unfortunately, no pharmacological inhibitors of MARCH5 have been reported. We designed a reporter system in which HEK293 cells are co-transfected with two plasmids encoding MARCH5 and γc-luciferase fusion protein respectively. In this system, inhibition of MARCH5 by an inhibitor would result in increased luciferase activity in reporter assays.
Using this system, we screened a collection of Food and Drug Administration-approved drugs and identified 10 compounds that increased luciferase activity to more than 1.5-folds (Table 1). […] Pitavastatin is a unique lipophilic statin and potent inhibitor of HMG-CoA reductase with a strong effect on lowering plasma total cholesterol and triacylglycerol. Pitavastatin has also been reported to have pleiotropic beneficial effects such as suppression of inflammation, regulation of angiogenesis and osteogenesis, improvement of endothelial function and arterial stiffness.

[2] = tested on: γc; test: γc degradation in Jurkat cells with degradation-route inhibitors (CHX chase or PD-L1 stimulation); assay type: cell-based, human
Experimental: PD-1-expressing Jurkat cells were pre-stimulated with PHA (50 ng/ml) for 36 h and then treated with CHX (0.1 mM) for the indicated times before immunoblotting analysis with the indicated antibodies. […] PD-1-expressing Jurkat cells were stimulated with PHA (50 ng/ml) in the presence of 2 μg/ml human PD-L1-Fc fusion protein or control (human IgG1) for 36 h, and then treated with MG132 ([…]), NH4Cl (25 mM) or 3-MA (500 ng/ml) for 12 h before immunoblotting analysis with the indicated antibodies. • (D) PD-1 ligation induces polyubiquitination of γc. PD-1-expressing Jurkat cells were stimulated with PHA (50 ng/ml) for the indicated times before co-immunoprecipitation and immunoblotting analysis with the indicated antibodies. • (E) MARCH5 promotes degradation of γc in a dose-dependent manner. HEK293 cells were transfected with the indicated plasmids for 24 h before immunoblot analysis with the indicated antibodies. • (F) Association of γc with MARCH5. […]
Cells were lysed in 1 ml of NP-40 lysis buffer (20 mM Tris-HCl, 150 mM NaCl, 1 mM EDTA, 10% Nonidet P-40, […] Triton X-100, […] aprotinin, 10 μg/ml leupeptin, and 1 mM phenylmethylsulfonyl fluoride, PMSF). […] The immunoprecipitants were analyzed by immunoblotting with the ubiquitin antibody.

[3] = target: T1, MARCH5; test: MARCH5-mediated degradation of γc in HEK293 cells; assay type: cell-based
Experimental: HEK293 cells were transfected by standard calcium phosphate precipitation. The empty control plasmid was added to ensure that each transfection receives the same amount of total DNA.
Cells were lysed in 1 ml of NP-40 lysis buffer (20 mM Tris-HCl, 150 mM NaCl, 1 mM EDTA, 10% Nonidet P-40, […] Triton X-100, […] aprotinin, 10 μg/ml leupeptin, and 1 mM phenylmethylsulfonyl fluoride, PMSF). For each immunoprecipitation reaction, a 0.4 ml aliquot of lysate was incubated with 0.5-2 μg of the indicated antibody or control IgG and 35 μL of a 1:1 slurry of Protein-G Sepharose (GE Healthcare) at 4° C. for 3 h. The Sepharose beads were washed three times with 1 ml of lysis buffer containing 500 mM NaCl. The precipitates were fractionated by SDS-PAGE, and immunoblotting analysis was performed with the indicated antibodies. For ubiquitination assays, the immunoprecipitants were re-extracted in NP-40 lysis buffer containing 1% SDS and denatured by heating for 10 min. The supernatants were diluted with regular lysis buffer until the concentration of SDS was decreased to 0.1%, following by re-immunoprecipitation with the indicated antibodies. The immunoprecipitants were analyzed by immunoblotting with the ubiquitin antibody.

[4] = tested on: γc; test: Effects of other statin drugs on the γc level; assay type: cell-based; conditions: other HMG-CoA reductase inhibitor statins
Excerpt: Statin drugs, such as lovastatin, simvastatin, fluvastatin sodium and rosuvastatin calcium, are thought to target HMG-CoA reductase. Therefore, we examined the effects of these statin drugs on the γc level.

[5] = tested on: tumor; test: PC or rosuvastatin calcium alone or with IL-2 on tumor growth in mice; assay type: in vivo, mouse
Excerpt: We further tested the anti-tumor effects of PC in mouse MC38 colorectal carcinoma and B16F10 melanoma models.

Compound	Rel. Luc. Act [1]	other results
NC(=O)N1CCC(CC(=O)N2CCC([C@H]3c4ncc(Br)cc4CCc4cc(Cl)cc(Br)c43)CC2)CC1 [Lonafarnib]	2.88	–
Cl.N [NH4Cl, ammonium chloride]	–	γc degradation after termination of protein synthesis by CHX ([2]; Jurkat cells, MG132 100 μM, NH4Cl 25 mM or 3-MA 500 ng/ml 4 h, then CHX 0.1 mM 2 h): markedly inhibited; also recorded: inhibits γc degradation; PD-L1-induced degradation of γc ([2]; PD-1-expressing Jurkat cells, PHA + PD-L1-Fc 36 h, then inhibitor 12 h): also inhibited; also recorded: inhibits PD-1 ligation-induced degradation of γc; MARCH5-mediated degradation of γc [3]: inhibited MARCH5-mediated degradation of γc
O=P(O)(O)C(O)(Cc1cccnc1)P(=O)(O)O [Risedronate Sodium]	1.60	–
CC[C@H](C)C(=O)O[C@H]1C[C@@H](C)C=C2C=C[C@H](C)[C@H](CC[C@@H]3C[C@@H](O)CC(=O)O3)[C@H]21 [lovastatin]	–	γc level [4]: up-regulated the level of γc
CC(C)c1nc(N(C)S(C)(=O)=O)nc(-c2ccc(F)cc2)c1/C=C/[C@@H](O)C[C@@H](O)CC(=O)[O-].CC(C)c1nc(N(C)S(C)(=O)=O)nc(-c2ccc(F)cc2)c1/C=C/[C@@H](O)C[C@@H](O)CC(=O)[O-].[Ca+2] [rosuvastatin calcium]	–	γc level [4]: up-regulated the level of γc; synergistic effect with IL-2 on tumor suppression ([5]; combined with IL-2, mice): no such synergism was observed; tumor growth ([5]; statin administered alone, mice): suppressed tumor growth
Chidamide	1.59	–

The next lines start with results.

Rel. Luc. Act [1]	Compound	other results
1.85	O=C(/C=C/c1cccc(S(=O)(=O)Nc2ccccc2)c1)NO [Belinostat]	–
1.60	Nc1ccccc1NC(=O)c1ccc(CNC(=O)OCc2cccnc2)cc1 [Entinostat]	–
1.83	Nc1ccccc1NC(=O)c1ccc(CNc2nccc(-c3cccnc3)n2)cc1 [Mocetinostat]	–
1.75	CCCCc1nc2cc(/C=C/C(=O)NO)ccc2n1CCN(CC)CC [Pracinostat]	–
1.86	Nc1cc(F)ccc1NC(=O)c1ccc(CNC(=O)/C=C/c2cccnc2)cc1 [Tucidinostat]	–
1.58	O=C(CCCCCCC(=O)Nc1ccccc1)NO [Vorinostat]	–
